Reference: US20100240656A1, “COMPOUNDS AS HSP90 INHIBITORS” (ORYZON GENOMICS, S.A., priority 2007, published 2010)
“Also recorded” adds a separate entry of the source.

Tests used:
HeLa = test: Cell proliferation by MTT method, HeLa; type: cell-based; settings: Homo sapiens
Procedure: (§1) The objective of this study was to determine the influence of the compounds on cell proliferation of K-562, A-549, MCF-7, HeLa, WI-38 by MTT method. The compounds were tested over a three-fold dilution series in triplicate for the determination of EC50 of their influence on cell proliferation.
(§2) The assay is based on the cleavage of the yellow tetrazolium salt MTT into purple formazan by metabolically active cells. The MTT formazan crystals are insoluble in aqueous solution, but may be solubilized by adding the 10% SDS, then incubating the plates overnight in a humidified atmosphere (e.g., 37° C., 5% CO2). The solubilized formazan product can be photometrically quantitated using Tecan reader. An increase in the number of living cells results in an increase of total metabolic activity, which leads to a stronger color formation.
(§3) EC50 values are defined as the compound concentration at which 50% of reaction product is formed.
(§4) Test compounds were dissolved to 10 mM in 100% DMSO.
(§5) In the day of the experiment cells were seeded into all wells of 96-well plates. Serial dilution of compounds was performed in a separate 96-well plate at 20 times final assay concentration in cell culture medium (DMEM with 10% Fetal Bovine Serum). 5 μl of compound was transferred to 96-well plate containing seeded cells in cell culture medium (final total volume=100 μl). Cells were cultured in the presence of the respective test substances in the 96-well plate at 37° C. in a humidified 5% CO2 incubator for a certain period of time (24, 72 or 120 hours). Then 5 μL of thiazolyl blue tetrazolium bromide (MTT) 5 mg/mL was added to the cells and the cells were reincubated 4 hours in a humidified 5% CO2 incubator. Then 10% SDS was added into the each well. The reaction product was quantified by measuring the absorbance at 568 nm using a scanning multiwell spectrophotometer Tecan. The developed color and thereby the absorbance values directly correlate to the number of the living cells.
(§6) The data were analyzed using Microsoft Excel 2000, GraphPad Prism 3.03. […]

[1] = system: Hsp90 client proteins (c-Raf-1, Cdk4, Her2) and co-chaperone Hsp70; test: Determination of biomarkers in cell cultures (western blot, MCF7 cells); type: cell-based, human; settings: 33 and 100 μM, 72 hours
Source text: FIG. 1 is a western blot analysis to determine the protein levels of Hsp90 client proteins (c-Raf-1, Cdk4, and Her2) and the co-chaperone Hsp70 upon treatment with increasing concentrations of example 6 (compound of the invention) and 17AAG (which is known in the state of the art as a degradation promoter).
The aim of this study was to determine the influence of example 6 on the levels of pharmacodynamic biomarkers such as c-Raf-1, Cdk4, Her2 and Hsp70, indicative that the effect observed in cell viability is mediated through inhibition of Hsp90. GADPH was used as a control of protein loading.
MCF7 cells (1×10^6) were seeded on tissue culture dishes and allowed to grow overnight at 37° C. with 5% CO2. Cells were treated with example 6 compound (at 33 and 100 μM) and the known Hsp90 inhibitor 17AAG (at […]). 0.5% DMSO was used as control. […] Protein concentration was measured by the Bradford method (Bio-Rad Protein Assay, Bio-Rad). […] Following appropriate secondary antibody incubation for 1 h at room temperature (anti-rabbit IgG-HRP, NA934V, Amersham Biosciences, diluted 1:8000; anti-mouse IgG-HRP, sc-2061, Santa Cruz Biotechnology, diluted 1:2500 and, anti-goat IgG-HRP, sc-31154, Santa Cruz Biotechnology, diluted 1:3500), the specific protein signals were detected using the ECL-Plus Western blotting detection system (GE Healthcare) according to the manufacturer's instructions. […]

K-562 = test: Cell proliferation by MTT method, K-562; type: cell-based; settings: Homo sapiens
Procedure: as §1, §2, §3, §4, §5, §6

NCCCCCn1c(Sc2cc3c(cc2I)OCO3)nc(C(N)=O)c1N [Example 6, 5-amino-1-(5-amino-pentyl)-2-(6-iodo-benzo[1,3]dioxol-5-ylsulfanyl)-1H-imidazole-4-carboxamide]
EC50 (HeLa; 24 h, incubation 1 day): > 100 µM | EC50 (HeLa; 72 h, incubation 3 days): 14.6 µM | EC50 (HeLa; 120 h, incubation 5 days): 8.6 µM | protein levels of Hsp90 client proteins (c-Raf-1, Cdk4, Her2) and co-chaperone Hsp70 by western blot [1]: acts in a similar way that 17AAG; also recorded: there is a specific interaction with hsp90 target in cells | EC50 (K-562; K562, 24 h, K 562, incubation 1 day): > 100 µM | EC50 (K-562; K562, 72 h, K 562, incubation 3 days): 12.2 µM | EC50 (K-562; K562, 120 h, K 562, incubation 5 days): 9.1 µM
